The results in this text go back to patent publication US20230295166A1, “ATR INHIBITORS AND USES THEREOF” (ANTENGENE DISCOVERY LIMITED, priority 2020, published 2023).

Each structure is given as a SMILES string.

In assay [1] the target is ATR kinase (Homo sapiens (Human), UniProt Q13535). Put plainly: ATR inhibition assay (mobility shift assay, phosphorylation of FAM-RAD17). Format: biochemical. Particulars: ATR kinase (Eurofins), substrate FAM-RAD17, mobility shift. The procedure: Assay 1: ATR Inhibition Assay
Sequence of ATR kinase (Q13535 whole entry): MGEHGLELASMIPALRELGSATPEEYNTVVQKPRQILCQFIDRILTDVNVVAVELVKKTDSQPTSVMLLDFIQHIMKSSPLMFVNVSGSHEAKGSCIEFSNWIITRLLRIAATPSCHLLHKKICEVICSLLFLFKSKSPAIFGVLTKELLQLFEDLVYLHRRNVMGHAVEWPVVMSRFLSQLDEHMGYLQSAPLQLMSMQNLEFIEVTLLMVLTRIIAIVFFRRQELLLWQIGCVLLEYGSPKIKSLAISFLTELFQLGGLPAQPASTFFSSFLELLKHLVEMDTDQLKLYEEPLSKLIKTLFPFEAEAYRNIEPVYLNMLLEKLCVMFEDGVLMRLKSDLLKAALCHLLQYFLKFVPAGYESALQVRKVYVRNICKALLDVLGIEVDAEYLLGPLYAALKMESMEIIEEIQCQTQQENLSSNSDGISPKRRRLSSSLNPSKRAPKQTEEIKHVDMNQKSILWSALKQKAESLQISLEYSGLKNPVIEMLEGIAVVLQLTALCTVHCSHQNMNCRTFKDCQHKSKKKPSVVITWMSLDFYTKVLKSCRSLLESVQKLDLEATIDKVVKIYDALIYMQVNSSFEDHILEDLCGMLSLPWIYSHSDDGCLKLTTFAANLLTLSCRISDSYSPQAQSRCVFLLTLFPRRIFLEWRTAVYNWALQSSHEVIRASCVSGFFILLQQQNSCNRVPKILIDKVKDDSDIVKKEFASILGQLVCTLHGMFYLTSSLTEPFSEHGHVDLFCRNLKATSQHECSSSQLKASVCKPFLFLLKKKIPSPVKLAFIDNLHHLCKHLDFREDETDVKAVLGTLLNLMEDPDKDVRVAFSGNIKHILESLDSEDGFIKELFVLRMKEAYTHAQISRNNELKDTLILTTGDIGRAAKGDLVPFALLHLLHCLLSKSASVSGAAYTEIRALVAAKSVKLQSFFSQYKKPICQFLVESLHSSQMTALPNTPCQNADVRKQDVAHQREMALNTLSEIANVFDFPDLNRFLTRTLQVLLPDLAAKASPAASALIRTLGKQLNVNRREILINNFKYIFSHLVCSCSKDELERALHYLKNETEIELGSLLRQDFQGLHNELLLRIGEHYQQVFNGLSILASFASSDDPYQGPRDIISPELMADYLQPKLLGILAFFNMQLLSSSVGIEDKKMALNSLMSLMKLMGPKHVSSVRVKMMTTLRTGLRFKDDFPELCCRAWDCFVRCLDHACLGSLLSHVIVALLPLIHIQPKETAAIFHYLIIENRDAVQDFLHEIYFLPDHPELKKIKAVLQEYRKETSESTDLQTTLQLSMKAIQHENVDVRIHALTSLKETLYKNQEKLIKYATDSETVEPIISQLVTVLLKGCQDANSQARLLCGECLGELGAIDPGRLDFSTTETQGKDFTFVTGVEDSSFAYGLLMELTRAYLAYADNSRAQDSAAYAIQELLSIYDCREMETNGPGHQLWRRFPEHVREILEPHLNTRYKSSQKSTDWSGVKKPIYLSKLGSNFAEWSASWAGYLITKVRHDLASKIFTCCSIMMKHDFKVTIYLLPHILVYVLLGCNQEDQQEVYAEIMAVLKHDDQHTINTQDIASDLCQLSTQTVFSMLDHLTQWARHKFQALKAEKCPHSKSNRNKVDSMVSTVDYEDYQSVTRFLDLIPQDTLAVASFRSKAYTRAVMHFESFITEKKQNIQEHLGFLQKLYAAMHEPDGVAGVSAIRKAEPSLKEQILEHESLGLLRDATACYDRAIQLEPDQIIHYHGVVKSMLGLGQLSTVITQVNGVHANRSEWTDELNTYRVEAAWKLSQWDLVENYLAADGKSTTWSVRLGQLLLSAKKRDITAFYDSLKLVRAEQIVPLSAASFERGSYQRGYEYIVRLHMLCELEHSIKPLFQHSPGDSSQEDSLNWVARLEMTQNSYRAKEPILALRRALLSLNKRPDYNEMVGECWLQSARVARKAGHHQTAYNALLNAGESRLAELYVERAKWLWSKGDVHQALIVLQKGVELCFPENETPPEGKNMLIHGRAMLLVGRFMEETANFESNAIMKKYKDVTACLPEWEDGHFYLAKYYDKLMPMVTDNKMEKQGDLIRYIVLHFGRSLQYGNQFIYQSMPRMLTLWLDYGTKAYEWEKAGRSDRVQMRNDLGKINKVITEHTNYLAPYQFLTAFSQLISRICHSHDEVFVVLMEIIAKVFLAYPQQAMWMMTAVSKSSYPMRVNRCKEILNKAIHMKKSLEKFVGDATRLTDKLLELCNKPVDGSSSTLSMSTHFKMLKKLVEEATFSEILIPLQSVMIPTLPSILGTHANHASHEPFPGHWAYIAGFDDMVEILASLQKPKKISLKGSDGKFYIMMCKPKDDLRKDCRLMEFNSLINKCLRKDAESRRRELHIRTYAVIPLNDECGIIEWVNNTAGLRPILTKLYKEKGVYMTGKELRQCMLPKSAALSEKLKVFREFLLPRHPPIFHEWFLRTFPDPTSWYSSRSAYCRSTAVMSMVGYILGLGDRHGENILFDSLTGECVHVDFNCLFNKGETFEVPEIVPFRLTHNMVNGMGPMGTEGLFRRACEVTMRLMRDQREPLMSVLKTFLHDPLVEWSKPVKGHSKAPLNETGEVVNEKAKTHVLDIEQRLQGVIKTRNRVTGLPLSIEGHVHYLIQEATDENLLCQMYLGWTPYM
Sequence of ATR kinase (Q8WXE1 whole entry partner): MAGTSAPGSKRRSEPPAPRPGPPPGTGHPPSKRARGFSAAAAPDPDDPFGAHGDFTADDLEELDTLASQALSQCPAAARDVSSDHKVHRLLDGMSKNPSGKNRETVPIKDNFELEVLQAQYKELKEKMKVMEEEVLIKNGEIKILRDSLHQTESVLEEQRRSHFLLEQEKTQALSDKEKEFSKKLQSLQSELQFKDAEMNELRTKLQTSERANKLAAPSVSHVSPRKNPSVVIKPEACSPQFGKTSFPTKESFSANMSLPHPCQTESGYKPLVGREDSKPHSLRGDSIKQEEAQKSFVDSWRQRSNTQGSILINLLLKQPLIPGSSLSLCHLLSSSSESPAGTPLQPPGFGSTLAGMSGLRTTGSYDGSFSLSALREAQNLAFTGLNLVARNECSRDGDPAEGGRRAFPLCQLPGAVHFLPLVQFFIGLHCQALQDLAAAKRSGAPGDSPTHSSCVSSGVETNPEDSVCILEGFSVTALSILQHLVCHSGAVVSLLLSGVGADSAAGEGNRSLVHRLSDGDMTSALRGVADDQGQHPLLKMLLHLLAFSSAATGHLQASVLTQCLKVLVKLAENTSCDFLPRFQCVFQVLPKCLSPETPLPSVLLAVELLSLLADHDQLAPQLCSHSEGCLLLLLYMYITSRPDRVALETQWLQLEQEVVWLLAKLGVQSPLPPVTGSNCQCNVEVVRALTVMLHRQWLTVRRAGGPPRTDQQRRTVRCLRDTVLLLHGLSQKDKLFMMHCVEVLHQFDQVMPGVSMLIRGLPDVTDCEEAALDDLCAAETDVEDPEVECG
Detection of ATR kinase activity utilized the Mobility shift assay to measure the phosphorylation of the substrate protein FAM-RAD17 (GL, Cat. No. 514318, Lot. No. P19042-MJ524315). The assay was developed and conducted at Chempartner. All the test compounds were dissolved in 100% DMSO at concentration of 20 mM, then prepare compounds and conducted the assay as follows: • 1) Transfer 80 μl 20 mM compound to 40 μl of 100% DMSO in a 96-well plate. • 2) Serially dilute the compound by transferring 20 μl to 60 μl of 100% DMSO in the next well and so forth for a total of 10 concentrations. • 3) Add 100 μl of 100% DMSO to two empty wells for no compound control and no enzyme control in the same 96-well plate. Mark the plate as source plate. • 4) Transfer 40 μl of compound from source plate to a new 384-well plate as the intermediate plate. • 5) Transfer 60 nl compounds to assay plate by Echo. • 6) Add ATR kinase (Eurofins, Cat. No. 14-953, Lot. No. D14 JP007N) into Kinase base buffer (50 mM HEPES, pH 7.5; 0.0015% Brij-35; 0.01% Triton) to prepare 2× enzyme solution, then add 10 μl of 2× enzyme solution to each well of the 384-well assay plate, incubate at room temperature for 10 min. • 7) Add FAM-RAD17 and ATP (Sigma, Cat. No. A7699-1G, CAS No. 987-65-5) in the kinase base buffer to prepare 2×peptide solution, then add 10 μl to the assay plate. • 8) Incubate at 28° C. for specified period of time. Add 40 μl of stop buffer (100 mM HEPES, pH 7.5; 0.015% Brij-35; 0.2% Coating Reagent #3; 50 mM EDTA) to stop reaction. • 9) Collect data on Caliper. Convert conversion values to inhibition values.
Percent inhibition=(max−conversion)/(max−min)*100 wherein “max” stands for DMSO control; “min” stands for low control.
Fit the data in XLFit excel add-in version 5.4.0.8 to obtain IC50 values. Equation used is:
Y=Bottom+(Top−Bottom)/(1+(IC50/X)^HillSlope) wherein X means concentration in a format not transformed to logarithms.

Assay [2] deals with LoVo (CCL-229) cells. Put plainly: Tumor cell anti-proliferation assay (CTG assay). Format: cell-based. Particulars: LoVo human colorectal cancer cells, 96 h, CellTiter-Glo. Put shortly: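 Cells seeded and held 20–24 h, then exposed to 3-fold serial dilutions of compound (final DMSO 0.5%) for 96 h at 37 °C, 5% CO2. Viability measured by CellTiter-Glo luminescence; IC50 and GI50 from a 4-parameter logistic fit.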
(Cellular ATP, detected with luciferase, serves as a proxy for viable cell number.)

One may read the IC50 as the midpoint of a concentration-inhibition curve. `Cc1cc(-c2nsc3c(C4(C(N)=O)CCCC4)cc(N4CCOC[C@H]4C)nc23)[nH]n1` [Example 87, (R)-1-(3-(3-methyl-1H-pyrazol-5-yl)-5-(3-methylmorpholino)isothiazolo[4,5-b]pyridin-7-yl)cyclopentane-1-carboxamide]: the IC50 in assay [1] is below 100 nM; in assay [2] it was 3 nM.
The like results for `C[C@@H]1COCCN1c1cc(C2(S(C)(=O)=O)CC2)n2ncc(-c3ccn[nH]3)c2n1` [Example 5, (R)-3-methyl-4-(7-(1-(methylsulfonyl)cyclopropyl)-3-(1H-pyrazol-5-yl)pyrazolo[1,5-a]pyrimidin-5-yl)morpholine] were, in that order, below 100 nM and 516 nM.
The like results for `C[C@@H]1COCCN1c1cc(-c2ccnn2C)c2snc(-c3ccn[nH]3)c2n1` [Example 29, (3R)-3-methyl-4-[7-(1-methyl-1H-pyrazol-5-yl)-3-(1H-pyrazol-5-yl)-[1,2]thiazolo[4,5-b]pyridin-5-yl]morpholine] were, in that order, below 100 nM and 14 nM.
Regarding `C[C@@H]1COCCN1c1cc(C2(S(C)(=O)=O)CC2)c2cnc(-c3ccn[nH]3)n2n1` [Example 30, (R)-3-methyl-4-(4-(1-(methylsulfonyl)cyclopropyl)-7-(1H-pyrazol-5-yl)imidazo[1,5-b]pyridazin-2-yl)morpholine], the IC50 in assay [1] was below 100 nM; in assay [2] it was 152 nM.
Take `C[C@@H]1COCCN1c1cc(C2(C(N)=O)CCCCC2)c2snc(-c3ccn[nH]3)c2n1` [Example 89, 1-{5-[(3R)-3-methylmorpholin-4-yl]-3-(1H-pyrazol-5-yl)-[1,2]thiazolo[4,5-b]pyridin-7-yl}cyclohexane-1-carboxamide]: the half-maximal inhibitory concentration (IC50) in assay [1] was below 100 nM; in assay [2] it was below 1 nM.
Consider `Cc1cc(-c2nsc3c(C4(C#N)CCCCC4)cc(N4CCOC[C@H]4C)nc23)[nH]n1` [Example 81, (R)-1-(3-(3-methyl-1H-pyrazol-5-yl)-5-(3-methylmorpholino)isothiazolo[4,5-b]pyridin-7-yl)cyclohexane-1-carbonitrile], for which the figures for the IC50 in assay [1] and in assay [2] were below 100 nM and 10 nM, respectively.
For `C[C@@H]1COCCN1c1cc(C(C)(C)C#N)c2snc(-c3ccn[nH]3)c2n1` [Example 53, (R)-2-methyl-2-(5-(3-methylmorpholino)-3-(1H-pyrazol-5-yl)isothiazolo [4,5-b]pyridin-7-yl)propanenitrile], in that order: below 100 nM and 12.8 nM.
For `Cc1cc(-c2nsc3c(C4(C#N)CCCC4)cc(N4CCOC[C@H]4C)nc23)[nH]n1` [Example 80, (R)-1-(3-(3-methyl-1H-pyrazol-5-yl)-5-(3-methylmorpholino)isothiazolo[4,5-b]pyridin-7-yl)cyclopentane-1-carbonitrile], the values for the IC50 in assay [1] and in assay [2] were below 100 nM and 10 nM, respectively.
For `C[C@@H]1COCCN1c1cc(C(C)(C)S(C)(=O)=O)c2snc(-c3ccn[nH]3)c2n1` [Example 55, (R)-3-methyl-4-(7-(2-(methylsulfonyl)propan-2-yl)-3-(1H-pyrazol-5-yl)isothiazolo[4,5-b]pyridin-5-yl)morpholine], in that order: below 100 nM and 13.7 nM.
As to `C[C@@H]1COCCN1c1cc(C2(C#N)CCCCC2)c2cnc(-c3ccn[nH]3)n2n1` [Example 60, (R)-1-(2-(3-methylmorpholino)-7-(1H-pyrazol-5-yl)imidazo[1,5-b]pyridazin-4-yl)cyclohexane-1-carbonitrile], the IC50 in assay [1] is below 100 nM; in assay [2], 4.1 nM.
As to `Cc1cc(-c2nsc3c(S(=O)(=O)C4CC4)cc(N4CCOC[C@H]4C)nc23)[nH]n1` [Example 85, (R)-4-(7-(cyclopropylsulfonyl)-3-(3-methyl-1H-pyrazol-5-yl)isothiazolo[4,5-b]pyridin-5-yl)-3-methylmorpholine], the IC50 is below 100 nM in assay [1] and 4 nM in assay [2].
`C[C@@H]1COCCN1c1cc(C2(C#N)CCOCC2)c2snc(-c3ccn[nH]3)c2n1` [Example 83, (R)-4-(5-(3-methylmorpholino)-3-(1H-pyrazol-5-yl)isothiazolo[4,5-b]pyridin-7-yl)tetrahydro-2H-pyran-4-carbonitrile]: the IC50 in assay [1] was below 100 nM; in assay [2], 14 nM.
With `CS(=O)(=O)C1(c2cc(N3C[C@H]4CC[C@@H](C3)O4)nn3c(-c4ccn[nH]4)ncc23)CC1` [Example 32, (1R,5S)-3-(4-(1-(methylsulfonyl)cyclopropyl)-7-(1H-pyrazol-5-yl)imidazo[1,5-b]pyridazin-2-yl)-8-oxa-3-azabicyclo[3.2.1]octane], the figures for the IC50 in assay [1] and in assay [2] were below 100 nM and 553 nM, respectively.
For `C[C@@H]1COCCN1c1cc(C2(C#N)CCCCC2)c2snc(-c3ccn[nH]3)c2n1` [Example 58, (R)-1-(5-(3-methylmorpholino)-3-(1H-pyrazol-5-yl)isothiazolo[4,5-b]pyridin-7-yl)cyclohexane-1-carbonitrile], in that order: below 100 nM and below 1 nM.
For `Cc1cc(-c2cnn3c(C4(S(C)(=O)=O)CC4)cc(N4CCOC[C@H]4C)nc23)[nH]n1` [Example 11, (R)-3-methyl-4-(3-(3-methyl-1H-pyrazol-5-yl)-7-(1-(methylsulfonyl)cyclopropyl)pyrazolo[1,5-a]pyrimidin-5-yl)morpholine], in that order: below 100 nM and 384 nM.
Regarding `C[C@@H]1COCCN1c1cc(-c2ccnn2C)n2ncc(-c3ccn[nH]3)c2n1` [Example 1, (R)-3-methyl-4-(7-(1-methyl-1H-pyrazol-5-yl)-3-(1H-pyrazol-5-yl)pyrazolo[1,5-a]pyrimidin-5-yl)morpholine], the IC50 in assay [1] was below 100 nM; in assay [2], 491 nM.
Consider `C[C@@H]1COCCN1c1cc(N2CCCCS2(=O)=O)c2snc(-c3ccn[nH]3)c2n1` [Example 76, (R)-2-(5-(3-methylmorpholino)-3-(1H-pyrazol-5-yl)isothiazolo[4,5-b]pyridin-7-yl)-1,2-thiazinane 1,1-dioxide], for which the results for the half-inhibitory concentration (IC50) in assay [1] and in assay [2] were below 100 nM and 24.3 nM, respectively.
For the molecule `C[C@@H]1COCCN1c1cc(C2(S(C)(=O)=O)CC2)c2ncc(-c3ccn[nH]3)n2n1` [Example 22, (R)-3-methyl-4-(8-(1-(methylsulfonyl)cyclopropyl)-3-(1H-pyrazol-5-yl)imidazo[1,2-b]pyridazin-6-yl)morpholine], the values for the half-maximal inhibitory concentration (IC50) in assay [1] and in assay [2] were below 100 nM and 622 nM, respectively.
The like results for `Cc1cc(-c2ncc3c(C4(C#N)CC4)cc(N4CCOC[C@H]4C)nn23)[nH]n1` [Example 63, (R)-1-(7-(3-methyl-1H-pyrazol-5-yl)-2-(3-methylmorpholino)imidazo[1,5-b]pyridazin-4-yl)cyclopropane-1-carbonitrile] were, in that order, below 100 nM and 38.9 nM.
For `C[C@@H]1COCCN1c1cc(S(=O)(=O)C2CC2)c2snc(-c3ccn[nH]3)c2n1` [Example 75, (R)-4-(7-(cyclopropylsulfonyl)-3-(1H-pyrazol-5-yl)isothiazolo[4,5-b]pyridin-5-yl)-3-methylmorpholine], in that order: below 100 nM and 15.3 nM.
The like results for `Cc1cc(-c2nsc3c(C4(C#N)CCOCC4)cc(N4CCOC[C@H]4C)nc23)[nH]n1` [Example 84, (R)-4-(3-(3-methyl-1H-pyrazol-5-yl)-5-(3-methylmorpholino)isothiazolo[4,5-b]pyridin-7-yl)tetrahydro-2H-pyran-4-carbonitrile] were, in that order, below 100 nM and 9 nM.
